Test results reported in US20260256789A1, “METHODS FOR TREATMENT OF CANCER” (Frontier Medicines Corporation, priority 2022, published 2026).

Molecular target: T1, KRAS G12C (GMPPNP-loaded) and cRAF Ras-binding domain (Homo sapiens, UniProt P01116, C118S/C51S/C80L/G12C)
T1 construct: truncated version comprising amino acids 1-169
Test: Inhibition of KRAS G12C and cRAF binding (AlphaScreen)
Conditions: KRAS G12C preloaded with GTP analogue GMPPNP, 2 hours preincubation
Source text: The ability of compounds of Formula (A), Formula (B) and Formula (C), and pharmaceutically acceptable salts and/or isotopologues thereof, to inhibit activity of the GTP-bound form of KRAS G12C can be tested using methods such as the in vitro assay described in Example 179 below. Example 179 describes determining, for various compounds, the half-maximal inhibition (IC50) of KRAS G12C loaded with GTP analogue GMPPNP from binding to cRaf, as the Ras-binding domain (RBD). Example 180 describes determining, for various compounds, the half-maximal inhibition (IC50) of KRAS G12C loaded with GTP analogue GMPPNP from binding to PI3Kα, as the Ras-binding domain (RBD). Example 181 describes testing compounds for the ability to inhibit cell viability in MCF10A G12C/A59G mutant, which abrogates GTPase activity, thus preventing hydrolysis of GTP to GDP.
The AlphaScreen technology was used to determine IC50s for compound inhibition of KRAS G12C (present as the Cys-light (C51S, C80L and C118S), truncated version comprising amino acids 1-169) and cRAF interaction. Compounds were diluted in 100% DMSO and each compound concentration was spotted at 200 nl/well onto low volume, white 384 well plates. The KRAS G12C contained a biotin-AviTag and the cRaf, as Ras-binding domain (amino acids 50-131, RBD), was GST-tagged. KRAS G12C was preloaded with the GTP analogue Guanosine 5′-[β,γ-imido]triphosphate (GMPPNP). The KRAS G12C was diluted in 25 mM Hepes, pH 7.4, 150 mM NaCl, 5 mM MgCl2, 0.01% TritonX-100 and 10 μM GMPPNP and added at 10 ul/well to compound-spotted plates resulting in a DMSO concentration of 2%. Plates were incubated for 2 hours. A mixture of RBD and the AlphaScreen streptavidin donor and glutathione acceptor beads diluted in 25 mM Hepes, pH 7.4, 150 mM NaCl, 5 mM MgCl2, 0.01% TritonX-100 and 2% DMSO was then added at 10 ul/well and incubated for 60-90 minutes before the samples were read for emission at 570 nm after excitation of the donor beads at 680 nm. All incubations were performed at room temperature. The final top compound concentration was 50 μM with 1:3 titrations for 10-point dose response curves. Final assay conditions were 0.5 nM KRAS G12C, 0.75 nM RBD and 5 μg/ml each of AlphaScreen donor and acceptor beads. IC50s were determined using nonlinear regression fit of [inhibitor] vs. response (4 parameters). […]

T1 sequence (P01116 1-169 isoform P01116-2 G12C/C51S/C80L/C118S): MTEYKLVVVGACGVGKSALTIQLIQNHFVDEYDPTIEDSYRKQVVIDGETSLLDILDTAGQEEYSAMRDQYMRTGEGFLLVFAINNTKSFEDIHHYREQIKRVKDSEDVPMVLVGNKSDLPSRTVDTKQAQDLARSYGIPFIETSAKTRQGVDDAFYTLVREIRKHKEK

Structure (SMILES) | IC50 [nM]
Cc1nccc(/C=C/C(=O)N2CC[C@@H](N(C)c3nc(OC[C@@]45CCCN4C[C@H](F)C5)nc4c(F)c(-c5cccc(Cl)c5C5CC5)ncc34)C2)n1 [Example 221] | 100 to 500
C=CC(=O)N1CC[C@@H](N(C)c2nc(OC[C@@]34CCCN3C[C@H](F)C4)nc3c(F)c(-c4cc(N)nc(C)c4C(F)(F)F)ncc23)C1 [Example 107, 1-((R)-3-((7-(6-amino-2-methyl-3-(trifluoromethyl)pyridin-4-yl)-8-fluoro-2-(((2R,7aS)-2-fluorotetrahydro-1H-pyrrolizin-7a(5H)-yl)methoxy)pyrido[4,3-d]pyrimidin-4-yl)(methyl)amino)pyrrolidin-1-yl)prop-2-en-1-one] | 10 to 100
CC(C)c1noc(/C=C/C(=O)N2CC(CN(C)c3nc(OC[C@@]45CCCN4C[C@H](F)C5)nc4c(F)c(-c5nc(N)cc6cccc(Cl)c56)ncc34)C2)n1 [Example 118] | 100 to 500
CO[C@@H]1CCN(C/C=C/C(=O)N2CC[C@@H](N(C)c3nc(OC[C@@]45CCCN4C[C@H](F)C5)nc4c(F)c(-c5cccc(Cl)c5C5CC5)ncc34)C2)C1 [Example 222] | 100 to 500
CN1CC[C@@H]1/C=C/C(=O)N1CC[C@@H](N(C)c2nc(OC[C@@]34CCCN3C[C@H](F)C4)nc3c(F)c(-c4nc(N)cc5cccc(Cl)c45)ncc23)C1 [Example 99] | < 10
CN(c1nc(OC[C@@]23CCCN2C[C@H](F)C3)nc2c(F)c(-c3cccc(Cl)c3C3CC3)ncc12)[C@@H]1CCN(C(=O)/C=C/CN2CC[C@H](F)C2)C1 [Example 238] | 10 to 100
C=CC(=O)N1CC[C@@H](N(C)c2nc(OC[C@@]34CCCN3C[C@H](F)C4)nc3c(F)c(-c4cc(O)ccc4C4CC4)ncc23)C1 [Example 31, 1-((R)-3-((7-(2-cyclopropyl-5-hydroxyphenyl)-8-fluoro-2-(((2R,7aS)-2-fluorotetrahydro-1H-pyrrolizin-7a(5H)-yl)methoxy)pyrido[4,3-d]pyrimidin-4-yl)(methyl)amino)pyrrolidin-1-yl)prop-2-en-1-one] | 10 to 100
Cc1ccc(N)nc1-c1ncc2c(N(C)[C@@H]3CCN(C(=O)/C=C/c4nc(C(C)C)no4)C3)nc(OC[C@@]34CCCN3C[C@H](F)C4)nc2c1F [Example 86] | 10 to 100
C=CC(=O)N1CC(CN(C)c2nc(OC[C@@]34CCCN3C[C@H](F)C4)nc3c(F)c(-c4nc(N)cc(C)c4C)ncc23)C1 [Example 146, 1-(3-(((7-(6-amino-3,4-dimethylpyridin-2-yl)-8-fluoro-2-(((2R,7aS)-2-fluorotetrahydro-1H-pyrrolizin-7a(5H)-yl)methoxy)pyrido[4,3-d]pyrimidin-4-yl)(methyl)amino)methyl)azetidin-1-yl)prop-2-en-1-one] | ≥ 500
Cc1noc(/C=C/C(=O)N2CC[C@@H](N(C)c3nc(OC[C@@]45CCCN4C[C@H](F)C5)nc4c(F)c(-c5nc(N)cc6cccc(Cl)c56)ncc34)C2)n1 [Example 150, (E)-1-((R)-3-((7-(3-amino-8-chloroisoquinolin-1-yl)-8-fluoro-2-(((2R,7aS)-2-fluorotetrahydro-1H-pyrrolizin-7a(5H)-yl)methoxy)pyrido[4,3-d]pyrimidin-4-yl)(methyl)amino)pyrrolidin-1-yl)-3-(3-methyl-1,2,4-oxadiazol-5-yl)prop-2-en-1-one] | < 10
C=CC(=O)N1CC[C@@H](N(C)c2nc(OC[C@@]34CCCN3C[C@H](F)C4)nc3c(F)c(-c4cc(OC)cc5nccnc45)ncc23)C1 [Example 230] | ≥ 500
C=CC(=O)N1CC[C@@H](N(C)c2nc(OC[C@@]34CCCN3C[C@H](F)C4)nc3c(F)c(-c4cccc(Cl)c4C4CC4)ncc23)[C@H]1C [Example 236] | 100 to 500
CN(c1nc(OC[C@@]23CCCN2C[C@H](F)C3)nc2c(F)c(-c3cccc(Cl)c3C3CC3)ncc12)[C@@H]1CCN(C(=O)C#C[C@@]2(C)CCCN2)C1 [Example 215] | < 10
C=CC(=O)N1CC[C@@H](N(C)c2nc(OCC34CCCN3CCC4)nc3c2C[C@H](C)[C@@H](c2nc(N)cc(C)c2C(F)(F)F)C3)C1 [Example 148, 1-((R)-3-(((6S,7S)-7-(6-amino-4-methyl-3-(trifluoromethyl)pyridin-2-yl)-6-methyl-2-((tetrahydro-1H-pyrrolizin-7a(5H)-yl)methoxy)-5,6,7,8-tetrahydroquinazolin-4-yl)(methyl)amino)pyrrolidin-1-yl)prop-2-en-1-one] | 100 to 500
CN(c1nc(OC[C@@]23CCCN2C[C@H](F)C3)nc2c(F)c(-c3nc(N)cc4cccc(F)c34)ncc12)[C@@H]1CCN(C(=O)/C=C/c2nc(C(C)(C)O)no2)C1 [Example 142] | < 10
C=CC(=O)N1CC(CN(C)c2nc(OCC34CCCN3CCC4)nc3c2C[C@H](C)[C@@H](c2nc(N)cc(C)c2C(F)(F)F)C3)C1 [Example 109] | ≥ 500
C=CC(=O)N1CC[C@@H](N(C)c2nc(OC[C@@]34CCCN3C[C@H](F)C4)nc3c(F)c(-c4nc(N)ccc4C4CC4)ncc23)C1 [Example 166, 1-((R)-3-((7-(6-amino-3-cyclopropylpyridin-2-yl)-8-fluoro-2-(((2R,7aS)-2-fluorotetrahydro-1H-pyrrolizin-7a(5H)-yl)methoxy)pyrido[4,3-d]pyrimidin-4-yl)(methyl)amino)pyrrolidin-1-yl)prop-2-en-1-one] | ≥ 500
CC(C)c1noc(/C=C/C(=O)N2CC[C@@H](N(C)c3nc(OC[C@@]45CCCN4C[C@H](F)C5)nc4c(F)c(-c5nc(N)ccc5C(F)(F)F)ncc34)C2)n1 [Example 47, (E)-1-((R)-3-((7-(6-amino-3-(trifluoromethyl)pyridin-2-yl)-8-fluoro-2-(((2R,7aS)-2-fluorotetrahydro-1H-pyrrolizin-7a(5H)-yl)methoxy)pyrido[4,3-d]pyrimidin-4-yl)(methyl)amino)pyrrolidin-1-yl)-3-(3-isopropyl-1,2,4-oxadiazol-5-yl)prop-2-en-1-one] | 10 to 100
CN1CC[C@@H]1/C=C/C(=O)N1CC[C@@H](N(C)c2nc(OC[C@@]34CCCN3C[C@H](F)C4)nc3c(F)c(-c4nc(N)cc5cccc(F)c45)ncc23)C1 (single isomer, unassigned) [Example 7] | < 10
CN(CC1CN(C(=O)/C=C/c2nc(C(C)(F)F)no2)C1)c1nc(OC[C@@]23CCCN2C[C@H](F)C3)nc2c(F)c(-c3nc(N)cc4cccc(F)c34)ncc12 [Example 113] | < 10
C=CC(=O)N1CC[C@@H](N(C)c2nc(OC[C@@]34CCCN3C[C@H](F)C4)nc3c(F)c(-c4cc(F)cc(F)c4C4CC4)ncc23)C1 [Example 249] | ≥ 500
C=CC(=O)N1CC[C@@H](N(C)c2nc(OC[C@@]34CCCN3C[C@H](F)C4)nc3c(F)c(-c4cncnc4C4CC4)ncc23)C1 [Example 260] | ≥ 500
C=CC(=O)N1CC[C@@H](N(C)c2nc(OC[C@@]34CCCN3C[C@H](F)C4)nc3c(F)c(-c4cc(F)cc(Cl)c4C4CC4)ncc23)C1 [Example 191] | 100 to 500
C=CC(=O)N1CC[C@@H](N(C)c2nc(OC[C@@]34CCCN3C[C@H](F)C4)nc3c(F)c(-c4cccc5sc(N)nc45)ncc23)C1 [Example 244] | 10 to 100
CN(c1nc(OC[C@@]23CCCN2C[C@H](F)C3)nc2c(F)c(-c3cccc(Cl)c3C3CC3)ncc12)[C@@H]1CCN(C(=O)/C=C/CN2[C@@H]3CC[C@H]2COC3)C1 [Example 241] | 10 to 100
C=CC(=O)N1CC[C@@H](N(C)c2nc(OC[C@@]34CCCN3C[C@H](F)C4)nc3c(F)c(-c4cccc(Cl)c4C(F)(F)F)ncc23)[C@H]1C [Example 217] | 10 to 100
